# Laboratory results from patent US20260232767A1, “INTERLEUKIN-23 RECEPTOR ANTAGONIST PEPTIDES FOR USE IN THE TREATMENT OF PSORIASIS” (Janssen Pharmaceutica NV, priority 2023, published 2026).
# System: subjects with moderate-to-severe plaque psoriasis
# Assay: Safety, adverse events, Example 2 through Week 56
# Type: in vivo, human
# Source text: The LTE safety analysis was based on randomized participants in Example who entered the present long-term extension study and received at least one dose of study intervention (including a partial dose) during the study period.
# [1] = Placebo → 100 mg QD after crossover, through Week 56
# [2] = Placebo → 100 mg QD, Week 16 through Week 56
# [3] = Placebo → 100 mg QD, LTE Safety analysis set
structure (smiles),measurement,setting,value
"CC(=O)NCCCC[C@@H]1NC(=O)[C@H](Cc2c[nH]c3c(C)cccc23)NC(=O)[C@H]([C@@H](C)O)NC(=O)[C@H](CC(N)=O)NC(=O)[C@@H](NC(C)=O)C(C)(C)SSC(C)(C)[C@@H](C(=O)N[C@@H](Cc2ccc(OCCN)cc2)C(=O)N[C@@H](Cc2ccc3ccccc3c2)C(=O)NC2(C(=O)N[C@@H](CCC(=O)O)C(=O)N[C@@H](CC(N)=O)C(=O)N[C@@H](Cc3cccnc3)C(=O)N(C)CC(N)=O)CCOCC2)NC1=O [IL-23 receptor antagonist peptide, Ac-[Pen]*-N-T-[W(7-Me)]-[Lys(Ac)]-[Pen]*-Phe[4-(2-aminoethoxy)]-[2-Nal]-[THP]-E-N-[3-Pal]-Sarc-NH2 (*[Pen]-[Pen]* formdisulfidebond)]",Seasonal allergy: number of subjects,"Combined, through Week 56",2
same,Skin and subcutaneous tissue disorders: % of subjects,"Combined, through Week 56",(6.5%)
same,Skin and subcutaneous tissue disorders: number of subjects,"Combined, through Week 56",16
same,Skin laceration: % of subjects,"Combined, through Week 56",(0.4%)
same,Skin laceration: number of subjects,"Combined, through Week 56",1
same,Skin papilloma: % of subjects,"Combined, through Week 56",(0.8%)
same,Skin papilloma: number of subjects,"Combined, through Week 56",2
same,Social circumstances: % of subjects,"Combined, through Week 56",(0.4%)
same,Social circumstances: number of subjects,"Combined, through Week 56",1
same,Steatohepatitis: % of subjects,"Combined, through Week 56",(0.4%)
same,Steatohepatitis: number of subjects,"Combined, through Week 56",1
same,Suicide attempt: % of subjects,"Combined, through Week 56",(0.4%)
same,Suicide attempt: number of subjects,"Combined, through Week 56",1
same,Sunburn: % of subjects,"Combined, through Week 56",(0.4%)
same,Sunburn: number of subjects,"Combined, through Week 56",1
same,Thrombocytopenia: % of subjects,"Combined, through Week 56",(0.4%)
same,Thrombocytopenia: number of subjects,"Combined, through Week 56",1
same,Thrombocytosis: % of subjects,"Combined, through Week 56",(0.4%)
same,Thrombocytosis: number of subjects,"Combined, through Week 56",1
same,Tonsillar hypertrophy: % of subjects,"Combined, through Week 56",(0.4%)
same,Tonsillar hypertrophy: number of subjects,"Combined, through Week 56",1
same,Tooth fracture: % of subjects,"Combined, through Week 56",(0.4%)
same,Tooth fracture: number of subjects,"Combined, through Week 56",1
same,Type 2 diabetes mellitus: % of subjects,"Combined, through Week 56",(0.4%)
same,Type 2 diabetes mellitus: number of subjects,"Combined, through Week 56",1
same,Urinary tract disorder: % of subjects,"Combined, through Week 56",(0.4%)
same,Urinary tract disorder: number of subjects,"Combined, through Week 56",1
same,Uterine leiomyoma: % of subjects,"Combined, through Week 56",(0.4%)
same,Uterine leiomyoma: number of subjects,"Combined, through Week 56",1
same,Vascular disorders: % of subjects,"Combined, through Week 56",(2.8%)
same,Vascular disorders: number of subjects,"Combined, through Week 56",7
same,Ventricular dysfunction: % of subjects,"Combined, through Week 56",(0.4%)
same,Ventricular dysfunction: number of subjects,"Combined, through Week 56",1
same,Vertigo: % of subjects,"Combined, through Week 56",(0.8%)
same,Vertigo: number of subjects,"Combined, through Week 56",2
same,Vitamin D deficiency: % of subjects,"Combined, through Week 56",(0.4%)
same,Vitamin D deficiency: number of subjects,"Combined, through Week 56",1
same,Deaths,LTE study period,no deaths
same,Subjects with 1 or more treatment-emergent adverse events leading to discontinuation of study agent,[1],0
same,Subjects with AE leading to discontinuation: Abdominal discomfort,[1],0
same,Subjects with AE leading to discontinuation: Abdominal pain,[1],0
same,Subjects with AE leading to discontinuation: Alanine aminotransferase increased,[1],0
same,Subjects with AE leading to discontinuation: Aspartate aminotransferase increased,[1],0
same,Subjects with AE leading to discontinuation: Asthenia,[1],0
same,Subjects with AE leading to discontinuation: Chills,[1],0
same,Subjects with AE leading to discontinuation: Ear and labyrinth disorders,[1],0
same,Subjects with AE leading to discontinuation: Gamma-glutamyltransferase increased,[1],0
same,Subjects with AE leading to discontinuation: Gastrointestinal disorders,[1],0
same,Subjects with AE leading to discontinuation: General disorders and administration site conditions,[1],0
same,Subjects with AE leading to discontinuation: Headache,[1],0
same,Subjects with AE leading to discontinuation: Insomnia,[1],0
same,Subjects with AE leading to discontinuation: Investigations,[1],0
same,Subjects with AE leading to discontinuation: Nausea,[1],0
same,Subjects with AE leading to discontinuation: Nervous system disorders,[1],0
same,Subjects with AE leading to discontinuation: Proctalgia,[1],0
same,Subjects with AE leading to discontinuation: Psoriasis,[1],0
same,Subjects with AE leading to discontinuation: Psychiatric disorders,[1],0
same,Subjects with AE leading to discontinuation: Skin and subcutaneous tissue disorders,[1],0
same,Subjects with AE leading to discontinuation: Suicide attempt,[1],0
same,Subjects with AE leading to discontinuation: Transaminases increased,[1],0
same,Subjects with AE leading to discontinuation: Vertigo,[1],0
same,Subjects with AE leading to discontinuation: Vomiting,[1],0
same,Subjects with AE leading to discontinuation: Weight increased,[1],0
same,Subjects with treatment-emergent AE: Cough,[1],0
same,Subjects with treatment-emergent AE: Headache,[1],0
same,Subjects with treatment-emergent AE: Nasopharyngitis,[1],9
same,Subjects with treatment-emergent serious AE: COVID-19,[1],0
same,Subjects with treatment-emergent serious AE: Cardiac disorders,[1],0
same,Subjects with treatment-emergent serious AE: Coronary artery disease,[1],0
same,Subjects with treatment-emergent serious AE: Diverticulitis,[1],0
same,Subjects with treatment-emergent serious AE: Foot deformity,[1],0
same,Subjects with treatment-emergent serious AE: General disorders and administration site conditions,[1],0
same,Subjects with treatment-emergent serious AE: Infected cyst,[1],0
same,Subjects with treatment-emergent serious AE: Infections and infestations,[1],0
same,"Subjects with treatment-emergent serious AE: Injury, poisoning and procedural complications",[1],0
same,Subjects with treatment-emergent serious AE: Intervertebral disc protrusion,[1],0
same,Subjects with treatment-emergent serious AE: Ligament injury,[1],0
same,Subjects with treatment-emergent serious AE: Musculoskeletal and connective tissue disorders,[1],0
same,"Subjects with treatment-emergent serious AE: Neoplasms benign, malignant and unspecified (incl cysts and polyps)",[1],0
same,Subjects with treatment-emergent serious AE: Non-cardiac chest pain,[1],0
same,Subjects with treatment-emergent serious AE: Psychiatric disorders,[1],0
same,"Subjects with treatment-emergent serious AE: Respiratory, thoracic and mediastinal disorders",[1],0
same,Subjects with treatment-emergent serious AE: Suicide attempt,[1],0
same,Subjects with treatment-emergent serious AE: Tonsillar hypertrophy,[1],0
same,Subjects with treatment-emergent serious AE: Uterine leiomyoma,[1],0
same,Subjects with treatment-emergent serious AE: Ventricular dysfunction,[1],0
same,Number of subjects with treatment-emergent AE: Cholelithiasis,[2],0
same,Number of subjects with treatment-emergent AE: Ear and labyrinth disorders,[2],0
same,Number of subjects with treatment-emergent AE: Endocrine disorders,[2],0
same,Number of subjects with treatment-emergent AE: Eye disorders,[2],2
same,Number of subjects with treatment-emergent AE: Eyelid skin dryness,[2],0
same,Number of subjects with treatment-emergent AE: Goiter,[2],0
same,Number of subjects with treatment-emergent AE: Hepatobiliary disorders,[2],1
same,Number of subjects with treatment-emergent AE: Hypertransaminasemia,[2],1
same,Number of subjects with treatment-emergent AE: Immune system disorders,[2],0
same,Number of subjects with treatment-emergent AE: Insomnia,[2],0
same,Number of subjects with treatment-emergent AE: Ocular cyst,[2],1
same,Number of subjects with treatment-emergent AE: Psychiatric disorders,[2],0
same,Number of subjects with treatment-emergent AE: Retinal vein occlusion,[2],1
same,Number of subjects with treatment-emergent AE: Seasonal allergy,[2],0
same,Number of subjects with treatment-emergent AE: Vertigo,[2],0
same,Subjects with treatment-emergent AE: Eye disorders (%),[2],(5.7%)
same,Subjects with treatment-emergent AE: Hepatobiliary disorders (%),[2],(2.9%)
same,Subjects with treatment-emergent AE: Hypertransaminasemia (%),[2],(2.9%)
same,Subjects with treatment-emergent AE: Ocular cyst (%),[2],(2.9%)
same,Subjects with treatment-emergent AE: Retinal vein occlusion (%),[2],(2.9%)
same,Subjects who discontinued study agent because of 1 or more adverse events,[3],0
same,Subjects with 1 or more Serious Infections and infestations,[3],0
same,Subjects with adverse event: Headache,[3],0
same,Subjects with adverse event: Meniscus injury,[3],0
same,Subjects with adverse event: Nasopharyngitis,[3],9
same,Subjects with adverse event: Sinusitis,[3],0
same,Subjects with adverse event: Vomiting,[3],0
same,Subjects with serious adverse event: Coronary artery disease,[3],0
same,Subjects with serious adverse event: Diverticulitis,[3],0
same,Subjects with serious adverse event: Foot deformity,[3],0
same,Subjects with serious adverse event: Intervertebral disc protrusion,[3],0
same,Subjects with serious adverse event: Ligament injury,[3],0
same,Subjects with serious adverse event: Non-cardiac chest pain,[3],0
same,Subjects with serious adverse event: Tonsillar hypertrophy,[3],0
same,Subjects with serious adverse event: Uterine leiomyoma,[3],0
